Test results from PubChem BioAssay (NCI).
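Each compound was tested at five concentrations against cells in 96-well plates for 48 hours. TGI marks complete inhibition of growth.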

Tests used:
Test in all cases: growth of human tumour cells (NCI), 48 h
KM12 colon = test system: KM12 colon
IGROV1 ovarian = test system: IGROV1 ovarian
HCT-116 colon = test system: HCT-116 colon
T-47D breast = test system: T-47D breast
COLO 205 colon = test system: COLO 205 colon
CCRF-CEM leukemia = test system: CCRF-CEM leukemia
BT-549 breast = test system: BT-549 breast
MOLT-4 leukemia = test system: MOLT-4 leukemia
NCI-H226 lung = test system: NCI-H226 lung
EKVX NSCLC = test system: EKVX NSCLC
A549 NSCLC = test system: A549 NSCLC
SK-MEL-28 melanoma = test system: SK-MEL-28 melanoma
NCI-H23 lung = test system: NCI-H23 lung
MDA-MB-231 breast = test system: MDA-MB-231 breast
SW-620 colon = test system: SW-620 colon
SF-268 CNS = test system: SF-268 CNS
OVCAR-5 ovarian = test system: OVCAR-5 ovarian
ACHN renal = test system: ACHN renal
OVCAR-3 ovarian = test system: OVCAR-3 ovarian
A498 renal = test system: A498 renal
HS 578T breast = test system: HS 578T breast
PC-3 prostate = test system: PC-3 prostate
NCI-H522 lung = test system: NCI-H522 lung
NCI/ADR-RES ovarian = test system: NCI/ADR-RES ovarian
SN12C renal = test system: SN12C renal
HOP-92 NSCLC = test system: HOP-92 NSCLC
786-0 renal = test system: 786-0 renal
SK-MEL-2 melanoma = test system: SK-MEL-2 melanoma
UO-31 renal = test system: UO-31 renal
UACC-257 melanoma = test system: UACC-257 melanoma
SK-MEL-5 melanoma = test system: SK-MEL-5 melanoma
MCF7 breast = test system: MCF7 breast
SNB-19 CNS = test system: SNB-19 CNS
SK-OV-3 ovarian = test system: SK-OV-3 ovarian
OVCAR-4 ovarian = test system: OVCAR-4 ovarian
SF-539 CNS = test system: SF-539 CNS
OVCAR-8 ovarian = test system: OVCAR-8 ovarian
DU-145 prostate = test system: DU-145 prostate
MDA-MB-435 = test system: MDA-MB-435
K-562 leukemia = test system: K-562 leukemia
M14 melanoma = test system: M14 melanoma
SNB-75 CNS = test system: SNB-75 CNS
U251 CNS = test system: U251 CNS
SF-295 CNS = test system: SF-295 CNS
HCT-15 colon = test system: HCT-15 colon
HCC-2998 colon = test system: HCC-2998 colon
SR leukemia = test system: SR leukemia
HT29 colon = test system: HT29 colon
RPMI-8226 leukemia = test system: RPMI-8226 leukemia
RXF 393 renal = test system: RXF 393 renal
HL-60(TB) leukemia = test system: HL-60(TB) leukemia
UACC-62 melanoma = test system: UACC-62 melanoma
HOP-62 NSCLC = test system: HOP-62 NSCLC
NCI-H460 lung = test system: NCI-H460 lung
TK-10 renal = test system: TK-10 renal
CAKI-1 renal = test system: CAKI-1 renal
LOX IMVI melanoma = test system: LOX IMVI melanoma

Measured: TGI

O=C(CCc1ccccc1CO)NCCc1ccccc1
not listed: LOX IMVI melanoma
> 100 µM: all other assays above

O[C@H]1[C@H](O)[C@H](O)CN2CCC[C@@H](O)[C@H]12
not listed: NCI-H460 lung
> 100 µM: all other assays above
